{
  "source": "PubChem BioAssay (NCI)",
  "key": {"[1]": {"test_system": "P388 leukemia", "experiment": "NCI tumour cell line growth inhibition, 48 h"}, "[2]": {"test_system": "P388/ADR leukemia", "experiment": "NCI tumour cell line growth inhibition, 48 h"}},
  "note": "Several values for one entry are separate records, joined by “and”; a condition that tells them apart may be missing. Equal values may be shown once.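 Exposure lasted 48 hours, with cells grown in 96-well plates and compounds tested at five concentrations. GI50 is the concentration that inhibits growth by half. TGI marks complete inhibition of growth.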",
  "data": [
    {"smiles": "Cc1[nH]c(=O)[nH]c(=O)c1N(CCF)CCCl", "values": [
      {"measurement": "GI50", "setting": "[1]", "result": "190 µM and 58.3 µM and 223 µM"},
      {"measurement": "TGI", "setting": "[1]", "result": "485 µM and 1330 µM and 791 µM"},
      {"measurement": "GI50", "setting": "[2]", "result": 242, "unit": "µM"},
      {"measurement": "TGI", "setting": "[2]", "result": "557 µM and 1110 µM"}
    ]}
  ]
}
